Tests used:
PNA-Capture = assay: Mismatch analysis with microsphere sensor loaded with PNA-based capture strand (FIG. 8); assay type: binding; settings: competition with DNA-QTL for PNA-Cap; 40° C., total well volume 200 μL
Protocol: The approach used in this example involves the competition of quencher labeled target with target for a complementary capture strand on the surface of sensing microspheres.
FIG. 8 is a graph showing mismatch analysis with a microsphere sensor loaded with a PNA-based capture strand (denoted “PNA-Cap”) having a structure shown below. The experiments were performed at 40° C. with a total well volume of 200 μL.

β-secretase enzyme [1] = target: T1, β-secretase enzyme (Homo sapiens, UniProt P56817); settings: 30 minutes at CRT, Sensor YY, excitation 440 nm, emission 576 nm
Protocol: The resulting solution sensor (“Sensor YY”) was made at the beginning of each experiment by incubating a 200-fold dilution of the master stock of “Sensor SS” with BRPE in a ratio that would provide 250 fmol of the latter in 40 μL of the mixture. To 5 μL of a 300 nM solution of BSEC-3 in assay buffer was added 30 ng of β-secretase enzyme in 5 μL of assay buffer. BSEC-3 has a polypeptide structure as set forth above. After incubating the control and sample mixtures for 30 minutes at CRT, 40 μL of the doped solution sensor (Sensor YY) was added to each well. The plate was shaken inside the plate reader for 60 seconds and the wells were probed for fluorescence intensity by exciting the polymer at 440 nm and measuring the emission intensity at 576 nm using a 475 nm cut-off filter. […] This observed difference was a measure of enzyme activity.

β-secretase enzyme [2] = target: T1, β-secretase enzyme; settings: 30 minutes at CRT, Sensor SS, excitation 440 nm, emission 530 nm
Protocol: A QTL solution sensor (“Sensor SS”) was prepared by mixing together 56.5 nmol of Avidin (Biotin binding protein, BBP) and 848 nmol of biotinylated PPE polymer (1) in a total volume of 11.3 mL and incubating at CRT for 24 hours. The polymer and the BBP combine with each other through the biotin-avidin interaction to form stable entities. The solution sensor thus prepared was diluted appropriately with buffer at the beginning of each experiment. The structure of polymer (1) is shown below: [drawing 4]
To 5 μL of a 400 nM solution of BSEC-1 (structure shown below) in assay buffer in a 384-well plate was added 30 ng of β-secretase enzyme dissolved in 5 μL of assay buffer.
The mixture was made in triplicate and incubated for 30 minutes at CRT. The control wells contained only peptide and no enzyme. After incubation, a 100-fold dilution of the above solution sensor was added at 20 μL to each well. The plate was shaken inside the microplate reader and the wells were probed by exciting the polymer at 440 nm and measuring the emission intensity at 530 nm using a 475 nm cut-off filter. […] The difference in fluorescence was a measure of enzyme activity.

T1 sequence (P56817 46-501): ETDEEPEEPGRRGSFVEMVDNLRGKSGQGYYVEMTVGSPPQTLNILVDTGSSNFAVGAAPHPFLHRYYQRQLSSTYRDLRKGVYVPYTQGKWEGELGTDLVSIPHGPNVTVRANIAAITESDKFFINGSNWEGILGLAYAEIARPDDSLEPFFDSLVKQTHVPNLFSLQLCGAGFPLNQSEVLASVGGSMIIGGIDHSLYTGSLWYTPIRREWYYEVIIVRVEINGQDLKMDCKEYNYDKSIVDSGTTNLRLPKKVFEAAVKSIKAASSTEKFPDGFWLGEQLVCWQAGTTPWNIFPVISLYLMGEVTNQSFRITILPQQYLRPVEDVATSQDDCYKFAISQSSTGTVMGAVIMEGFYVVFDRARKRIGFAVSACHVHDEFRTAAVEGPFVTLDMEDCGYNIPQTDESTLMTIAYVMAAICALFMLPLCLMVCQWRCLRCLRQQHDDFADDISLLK

Substance: 5′-TGCATATTTAATGGAATTTA-3′ (TGCATATTTAATGGAATTTA; listed as DNA, chemistry not fully specified; the letters are possibly those of the target site) [AA double mismatch target]
- relative fluorescence with increasing amounts of target (PNA-Capture): observed for all targets except

Substance: 5′-TGCATTTTTAATGGTATTTA-3′ (TGCATTTTTAATGGTATTTA; listed as DNA, chemistry not fully specified; the letters are possibly those of the target site) [perfect complement target]
- relative fluorescence with increasing amounts of target (PNA-Capture): much higher

Substance: β-secretase enzyme
- average RFU (polymer emission at 530 nm, Sensor SS) after 30 min incubation of 400 nM BSEC-1 with 30 ng β-secretase; control wells with peptide only gave 5,400±200 (BSEC-1): 8350 ± 200 RFU
- average RFU (emission at 576 nm, BRPE-doped Sensor YY) after 30 min incubation of 300 nM BSEC-3 with 30 ng β-secretase; control wells gave 5,200±200 (BSEC-3): 14500 ± 200 RFU

Substance: (AZO)-T-E-E-I-S-E-V-N-L-D-A-E-F-(K-Biotin)-OH [BSEC-3]
- RFU, sample wells containing enzyme (β-secretase enzyme [1]; 5 μL of 300 nM peptide + 30 ng β-secretase): 14,500±200 RFU
- average RFU value, control wells (β-secretase enzyme [1]; 5 μL of 300 nM peptide, no enzyme): 5,200±200 RFU

Substance: (QSY7)-T-E-E-O-S-E-V-N-L-D-A-E-F-(K-Biotin)-OH [BSEC-1]
- average RFU value, sample wells containing enzyme (β-secretase enzyme [2]; 5 μL of 400 nM peptide + 30 ng β-secretase): 8,350±200 RFU
- average RFU value, control wells (only peptide and no enzyme) (β-secretase enzyme [2]; 5 μL of 400 nM peptide, no enzyme): 5,400±200 RFU

— patent US20040175768A1, “Methods of biosensing using fluorescent polymers and quencher-tether-ligand bioconjugates” (priority 2002, published 2004)
